Series [1] is described as follows: DNP hyperpolarisation of acetic anhydride with Finlandic acid trityl radical, with or without gadolinium complex (solid state polarisation build up). The format is physicochemical. The protocol:
A stock solution of radical was prepared by dissolving Finlandic acid (2.7 mg, 2.6 μmol) in unlabeled acetic anhydride (22.2 mg) yielding a solution with a concentration of 105 μmol/g.

Series [2] in a line: Dissolution and hydrolysis of hyperpolarised acetic anhydride, NMR time series of 1D spectra to follow signal decay. The format is physicochemical. As for the experimental part: A stock solution of radical was prepared by dissolving Finlandic acid (2.7 mg, 2.6 μmol) in unlabeled acetic anhydride (22.2 mg) yielding a solution with a concentration of 105 μmol/g. A part (2.1 mg) of this stock solution was mixed with 1,1′-^13C2 acetic anhydride (15 μl, 17.2 mg, 0.165 mmol) to make a 12.8 mM solution. […] The sample was dissolved in 5 ml water with added NaOH (12 M, 39 μl) and allowed to hydrolyze for 15 s and then neutralized by mixing with phosphate buffer (300 μl, 1M, pH 7.3) with addition of HCl (14 μl, 12M). The sample was transferred to an NMR spectrometer and the acquisition was started 30 s after the dissolution recording a time series of 1D spectra to follow signal decay.

Where [3] appears, read: 13C DNP, acetic anhydride/1,1'-13C2 acetic anhydride, Finlandic acid radical 12.5 mM, gadolinium complex added as labelled (none for acetic anhydride, Example 1), FIG. 1.

Turning to `CCCCCCCCCCCCCCCCCCN(CCCCCCCCCCCCCCCCCC)C(=O)CN1CCN(CC(=O)[O-])CCN(CC(=O)[O-])CCN(CC(=O)[O-])CC1.[Gd+3]` [Gadolinium complex II, [10-[2-(dioctadecylamino)-2-oxoethyl]-1,4,7,10-tetraazacyclododecane-1,4,7-triacetato(3-)]gadolinium, reference compound], the “exponential time constant of hyperpolarisation” value (“exponential time constant” for short) in series [1] (setting [3]) is given as 690 s.

`CC(O)CN1CCN(CC(=O)[O-])CCN(CC(=O)[O-])CCN(CC(=O)[O-])CC1.[Gd+3]` (stereo not shown) [Gadolinium complex III, [10-(2-hydroxypropyl)-1,4,7,10-tetraazacyclododecane-1,4,7-triacetato(3-)]gadolinium, reference compound]: the “exponential time constant” value in series [1] (setting [3]) was found to be 750 s.

On to `CC(=O)OC(C)=O` [acetic anhydride], for which the “exponential time constant” value in series [1] (setting [3]) was 670 s; in series [1] (Example 5: 1,1'-13C2 acetic anhydride, Finlandic acid 12.8 mM, no gadolinium complex), 525 s. The “hydrolysis of acetic anhydride at the start of the acquisition” value in series [2] (5 ml water with NaOH, 15 s hydrolysis, neutralized, acquisition 30 s after dissolution) is on record as “complete”.

Take `CC(=O)O` [hydrolysis product, acetic acid]: the “T1 of the hydrolysis product” value in series [2] (after dissolution in water/NaOH, hydrolysis 15 s, neutralization to pH 6.8, acquisition started 30 s after dissolution) was 45 s.

Take “[[α1,α4,α7-tris[(phenylmethoxy)methyl]-1,4,7,10-tetraazacyclododecane-1,4,7,10-tetraacetato(4-)]gadolinate(1-)]hydrogen [Gadolinium complex I]”: the “exponential time constant” value in series [1] (setting [3]) is listed as 690 s.

The record behind these values is patent US9693828B2, “Composition comprising acetic anhydride and a gadolinium complex, and method for the use in hyperpolarisation in MRI analysis” (BRACCO IMAGING S.P.A., priority 2011, dated 2017).
